From patent US20110224197A1, “PYRIMIDINES AND PYRIDINES USEFUL AS INHIBITORS OF PROTEIN KINASES” (Vertex Pharmaceuticals Incorporated, priority 2008, published 2011)

Experiments:
CRMP2 = CRMP2 Phosphorylation Assay; type: cell-based, rat; conditions: E16 hippocampal neurons treated for seven days
Experimental: GSK-3 phosphorylation regulates CRMP2 which is involved in the control of axon outgrowth and branching (Yoshimura et al., 2005 Cell, Kim et al. 2006 Neuron). Phosphorylation of CRMP2 by GSK-3 reduces CRMP2 binding to microtubules and thereby reduces axon elongation and branching. Conversely, inhibition of GSK-3, especially at levels that selectively affect TYR residue autophosphorylation, enhances these phenotypes. Compounds are tested in E16 rat hippocampal or cortical neurons to determine the ability to increase the level of axonal branching.
1 mg/ml stock of PDL is diluted into 100 μg/mL in DI water. The glass coverslips are coated for at least 1 hour at 37° C. prior to doing the dissection. PDL is aspirated and the plates are rinsed with PBS and air-dried in hood.
Cortical or hippocampal lobes are combined with 9 mL of Base media (Neurobasal+Pen/Strep) and put on ice. 1 mL of 10× trypsin solution is added and the Mixture is swirled gently. The tissue is then digested via incubation in a 37° C. waterbath for 20 minutes. After 20 minutes, 10 μL/mL DNase (100 μL DNase) is added and the mixture is incubated for another 5 minutes.
The cells are spun at 1000 rpm for 1 minute. The enzyme solution is then removed without removing any of the brain fragments sitting on the bottom. […] The cells are counted in a hemacytometer and seeded at 50,000 cells/well in a 12 well plate. […]

[1] = tested on: Middle Cerebral Artery Occlusion in adult male Wistar rats; experiment: Post Stroke Recovery Model II (MCA electrocoagulation, behavioral tests); type: in vivo, rat
Text: Adult male Wistar rats are pre-trained on a battery of behavioral tests including: tray reach, gridwalk, forelimb asymmetry (cylinder bracing), forelimb inhibition (swim test) (see below for detailed description of tests). Following pre-stroke behavioral assessment, the rats received surgery, during which a stroke is induced. The rats are pseudo-randomly divided into 5 equal groups (n=12) ensuring an equal number of right and left strokes within each treatment group. The first group receives sham surgery with vehicle as treatment. Administration of the test compound and vehicle (dose, route, timing) is determined by the sponsor. The core body temperature is maintained at 37° C. (+/−1°).
Following surgery, all animals are behaviorally assessed 1, 7, and 14 d post-stroke. At the conclusion of behavioral assessment, all rats undergo an MRI to determine infarct volume. Group behavioral performance and stroke volume are compared between groups using one way analysis of variance to determine therapeutic benefit of the compound in rate and extent of recovery of function following MCAO stroke.
Each animal is weighed (average weights were 340 g) and then anesthetized with isoflurane (4% isoflurane carried on 21/min medical grade oxygen to induce surgical plane and then 2% with 2 l/min oxygen to maintain a surgical plane). Following induction of anesthesia each rat is individually marked with an ear-punch and administered a subcutaneous dose of buprenorphine (0.025 mg/kg). Rectal temperature is monitored and maintained at 37° C.+/−1° C. for the duration of the surgery and until the rat is awake and mobile (approximately 3 hr).
The rat is then placed into a stereotaxic apparatus positioned such that the lateral aspect of the head was facing up. The skin between the eye […] and ear is shaved and washed with surgical antiseptic scrub. A vertical incision is made midway between the right orbit and external auditory canal. The underlying temporalis muscle is incised, detached from the skull and retracted with care to preserve the facial nerve. Two sutures hold the temporal muscle away from the lateral aspect of the skull. A craniotomy is performed from the posterior zygoma and along the temporal ridge of the cranium extending ventrally to expose the middle cerebral artery (MCA) and olfactory tract. The dura is opened, and the base of the MCA and the anterior portion of the first branch is electrocoagulated ventral to the olfactory tract, resulting in infarction of the right dorsolateral cerebral cortex.
Time at which stroke occurred is noted upon completion of the electrocoagulation of the MCA. Once bleeding is controlled, the temporal muscle is replaced and the skin sutured. The rat is then removed from the stereotaxic apparatus and moved to the recovery room. A second subcutaneous dose of buprenorphine (0.025 mg/kg) is administered along with 2 cc of Ringers solution. Water, wet rat chow mash, and a warming blanket under 1/2 the cage is made available while in the recovery room. Once the rat is awake and seen to be eating and drinking, it is moved back into its cage in the animal colony.
Forepaw use is measured with a procedure that is adapted from the method devised by Whishaw, O'Connor, and Dunnett (1986). Each animal is food-restricted such that feeding time occurs after testing each day. The animals are placed in test cages (10×18×10 cm high) with floors and fronts constructed of 2-mm bars, 9 mm apart edge to edge. […]

Cc1nc(-c2ccccc2Cl)nc(Nc2n[nH]c3ncc(F)cc23)c1C [Compound I-37, N-(2-(2-chlorophenyl)-5,6-dimethylpyrhnidin-4-yl)-5-fluoro-1H-pyrazolo[3,4-b]pyridin-3-amine]
Inhibition of GSK-3 phosphorylation of substrate CRMP-2 (CRMP2): correlated with inhibition of GSK-3 pTYR | Forelimb inhibition (swimming test) deficit ([1]; 7 and 14 days after stroke): significantly ameliorated this deficit | Gridwalk deficit ([1]; 7 and 14 days after stroke): significantly ameliorated this deficit | Tray reaching deficit compared with vehicle treatment ([1]; 7 and 14 days after stroke): significantly ameliorated this deficit | Forepaw asymmetry (cylinder test) deficit ([1]; low dose, 14 days after stroke): significantly ameliorated this deficit | Adhesive removal test ([1]; rat, in vivo): did not show significant effect
